This passage reports EC50 results from US9328104B2, “Selective androgen receptor modulators” (Pfizer Inc., priority 2012, dated 2016).

The assay concerns the target T1, full length human Androgen Receptor (AR) (Homo sapiens, UniProt P10275).
T1 construct: transiently transfected in T225 cm^2 flasks with a full length human Androgen Receptor (AR) cDNA; expressed in transfected cells; host or cells: CV-1 cells (ATCC CCL-70), transiently transfected with AR cDNA in pcDNA3 and ARE-luciferase in pGL3
T1 sequence (P10275 1-920): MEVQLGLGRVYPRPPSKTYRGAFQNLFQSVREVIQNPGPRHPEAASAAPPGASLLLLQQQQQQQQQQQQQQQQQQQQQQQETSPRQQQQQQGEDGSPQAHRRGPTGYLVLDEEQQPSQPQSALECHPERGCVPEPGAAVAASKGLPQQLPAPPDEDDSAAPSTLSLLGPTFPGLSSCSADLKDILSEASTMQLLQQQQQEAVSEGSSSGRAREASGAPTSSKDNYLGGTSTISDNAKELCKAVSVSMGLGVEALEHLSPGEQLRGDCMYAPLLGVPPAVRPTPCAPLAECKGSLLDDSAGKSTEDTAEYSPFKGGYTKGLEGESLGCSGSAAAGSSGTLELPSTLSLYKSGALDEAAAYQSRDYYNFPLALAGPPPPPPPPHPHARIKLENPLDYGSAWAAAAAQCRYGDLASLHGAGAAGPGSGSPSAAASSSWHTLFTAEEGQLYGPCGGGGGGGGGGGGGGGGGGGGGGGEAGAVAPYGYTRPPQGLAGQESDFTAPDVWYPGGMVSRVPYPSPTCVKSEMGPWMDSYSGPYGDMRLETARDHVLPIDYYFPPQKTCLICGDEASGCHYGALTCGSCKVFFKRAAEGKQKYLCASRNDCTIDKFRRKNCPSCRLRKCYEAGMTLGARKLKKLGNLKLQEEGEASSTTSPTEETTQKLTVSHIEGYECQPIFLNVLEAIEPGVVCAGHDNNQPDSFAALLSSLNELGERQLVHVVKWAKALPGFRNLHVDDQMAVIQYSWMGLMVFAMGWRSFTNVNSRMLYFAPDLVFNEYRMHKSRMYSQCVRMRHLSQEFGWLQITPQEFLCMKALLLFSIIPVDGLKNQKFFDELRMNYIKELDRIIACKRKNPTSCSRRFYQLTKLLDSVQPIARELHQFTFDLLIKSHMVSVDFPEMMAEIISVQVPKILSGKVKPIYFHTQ
Briefly: Androgen Receptor-Mediated Transcriptional Assay (ARE-luciferase reporter in transiently transfected CV-1 cells). The assay is classed as cell-based. Here is the method:
Androgen Receptor-Mediated Transcriptional Assay Summary
CV-1 cells (American Tissue Culture Collection cat# CCL-70) were expanded in Growth Media and transiently transfected in T225 cm^2 flasks with a full length human Androgen Receptor (AR) cDNA in the pcDNA3 expression vector and a human Androgen Response Element (ARE)-luciferase cDNA in the pGL3 vector (both from Invitrogen). DNA (μg) and Lipofectamine (μl) at a ratio of 1:3 were incubated with the cells in a total volume of 55 mL Basal Media for 4 hours. Cells were harvested by trypsinization and frozen back (−150° C. cryomed) at a concentration of 4.3 million cells/mL.
On the day of the assay, frozen cells were thawed and re-suspended in Re-suspension Media and plated at 40,000 cells/well (in 100 μL volume) in 96 well white plates and were incubated for at least 4 h at 37° C., 5% CO2. After incubation, cells were treated with the compounds to be screened. 10 mM stocks of the compounds were serially diluted 1:10 in 100% DMSO followed by an additional 1:100 dilution in Assay Media. These dilution series were added to the cell plates resulting in a further 1:10 dilution and a final % DMSO of 0.1%. The vehicle control wells also contained this dilution of DMSO and the positive control wells contained […] (DHT) as an AR agonist at final concentration of 0.3 nM in 0.1% DMSO. Cells were incubated for 16-18 hours at 37° C. and 5% CO2. Then the culture media was removed from and the cells were lysed in 20 μL of cell lysis reagent for 5 minutes at room temperature. 50 μL of luciferase reagent was added to each well and luminescence, over 5 seconds, was measured.
EC50 (half maximal effective concentration) was calculated from concentration series plots which generated sigmoidal curves. Xlfit software was used to plot the best fit of the % effect vs concentration and to calculate the EC50.
Reagents and Materials used in the Androgen Receptor-Mediated Transcriptional Assay include the following: • Growth Media—DMEM/high glucose—10% FBS: 500 ml phenol red DMEM/high glucose (Gibco, Grand Island N.Y., cat #10569-010), 10% non heat-inactivated Fetal Bovine Serum (FBS) (Atlanta Biologicals, Norcross Ga., cat #S-12450), 1% Nonessential Amino Acids (Gibco, cat #11140-050), 1% Penicillin-Streptomycin (Gibco, cat #15140-122) • Basal Media—phenol red free DMEM/high glucose (Gibco, cat #31053-028)+1% Na Pyruvate (Gibco, cat #11360-070), 1% Nonessential Amino Acids (Gibco, cat #11140-050), 1% GlutaMAX-I (Gibco, cat #35050-061) • Re-suspension Media—basal media+1% Penicillin-Streptomycin (Gibco, cat #15140-122) • Assay Media—basal media+5% charcoal stripped FBS (HyClone, Logan Utah, Cat #SH30068)+1% Penicillin-Streptomycin (Gibco, cat #15140-122) • Cell Lysis Reagent—Promega, Cat #PAE1531 • Luciferase Reagent—Promega, Cat #PAE1483
For orientation: A reporter such as luciferase makes a cellular process visible.

Where [1] appears, read: CV-1 cells transfected with human AR and ARE-luciferase, 16-18 hours incubation, luminescence, read-out: EC50 Values for Compounds 1-22 from Androgen Receptor-Mediated Transcriptional Assay.

Where two headings read alike, the source gives them in different places.

For orientation: EC50 means the concentration at which the effect is half-maximal.

Consider `N#Cc1nccc2cc(N3[C@@H](c4ccc(Cl)cc4)CNS3(=O)=O)ccc12` (single isomer, unassigned) [Compound 7], for which, under setting [1], the concentration for a half-maximal effect (EC50) is 22 nM.
The same measure, in the same setting: the result for `C[C@H]1CN(C)S(=O)(=O)N1c1ccc2c(C#N)nccc2c1` [Compound 5] reads 5 nM.
The same measure, in the same setting: for “6-[(4S)-4-(3-methylphenyl)-1,1-dioxido-1,2,6-thiadiazinan-2-yl]isoquinoline-1-carbonitrile [Compound 20]” the value was 8 nM; for `Cc1cccc(C[C@@H]2CNS(=O)(=O)N(c3ccc4c(C#N)nccc4c3)C2)c1` (single isomer, unassigned) [Compound 15], 195 nM.
For `N#Cc1nccc2cc(N3C(=O)CC[C@@H]3[C@H](O)C(F)(F)F)ccc12` (single isomer, unassigned) [Compound 32], the response was half-maximal at 84.3 nM (EC50).
`CC1CCN(c2ccc3c(C#N)nccc3c2)S(=O)(=O)N1` (racemic) [Compound 17, 6-(5-methyl-1,1-dioxido-1,2,6-thiadiazinan-2-yl)isoquinoline-1-carbonitrile]: the 50% effective concentration (EC50) under setting [1] came to 16 nM.
In the case of `C[C@H]1CC[C@@H]([C@H](O)C(F)(F)F)N1c1ccc2c(C#N)nccc2c1` (single isomer, unassigned) [Compound 38], the EC50 stood at 187 nM.
`C[C@H]1CNS(=O)(=O)N1c1ccc2c(C#N)nccc2c1` [Compound 1, 6-[(3S)-3-methyl-1,1-dioxido-1,2,5-thiadiazolidin-2-yl]isoquinoline-1-carbonitrile] had an EC50 of 15 nM.
The same measure, in the same setting: for `N#Cc1nccc2cc(N3CCC[C@H]3[C@H](O)C(F)(F)F)ccc12` (single isomer, unassigned) [Compound 36] the value was 120 nM; for `C[C@H](O)[C@H]1CC[C@@H](C)N1c1ccc2c(C#N)nccc2c1` (single isomer, unassigned) [Compound 39], 37.3 nM.
Take `N#Cc1nccc2cc(N3[C@H](CC(F)(F)F)CNS3(=O)=O)ccc12` (single isomer, unassigned) [Compound 3]: the EC50 under setting [1] is 79 nM.
Compound `C[C@@H]1CC[C@H]([C@@H](O)C(F)(F)F)N1c1ccc2c(C#N)nccc2c1` [Compound 30, 6-{(2R,5R)-2-methyl-5-[(1R)-2,2,2-trifluoro-1-hydroxyethyl]pyrrolidin-1-yl}isoquinoline-1-carbonitrile] had a 50% effective concentration (EC50) of 0.1 nM.
In turn, `CC[C@H]1CNS(=O)(=O)N1c1ccc2c(C#N)nccc2c1` (single isomer, unassigned) [Compound 2] returned a 50% effective concentration (EC50) of 18 nM.
For `N#Cc1nccc2cc(N3[C@H](CCc4ccccc4)CNS3(=O)=O)ccc12` (single isomer, unassigned) [Compound 4], the 50% effective concentration (EC50) under setting [1] turned out to be 22 nM.
`C[C@H]1CNS(=O)(=O)N1c1ccc2c(C#N)cccc2c1` (single isomer, unassigned) [Compound 9] had a 50% effective concentration (EC50) of 4 nM.
Take `C[C@@H]1CNS(=O)(=O)N(c2ccc3c(C#N)nccc3c2)C1` [Compound 10, 6-[(4R)-4-methyl-1,1-dioxido-1,2,6-thiadiazinan-2-yl]isoquinoline-1-carbonitrile]: the concentration giving a half-maximal response (EC50) under setting [1] turned out to be 0.4 nM.
On to `Cc1ccc([C@@H]2CNS(=O)(=O)N(c3ccc4c(C#N)nccc4c3)C2)cc1` (single isomer, unassigned) [Compound 19], for which the EC50 under setting [1] came to 177 nM.
The compound `C[C@H]([C@H](O)C(F)(F)F)N(C)c1ccc2c(C#N)nccc2c1` (single isomer, unassigned) [Compound 27] had an EC50 of 12.9 nM.
With `N#Cc1nccc2cc(N3C[C@H](c4ccccc4)CNS3(=O)=O)ccc12` [Compound 12], the EC50 under setting [1] stood at 217 nM.
Same read-out and setting: the result for `C[C@H]1CCS(=O)(=O)N1c1ccc2c(C#N)nccc2c1` [Compound 8, 6-[(3S)-3-methyl-1,1-dioxido-1,2-thiazolidin-2-yl]isoquinoline-1-carbonitrile] reads 271 nM.
The compound `N#Cc1nccc2cc(N3CCCC[C@@H]3[C@H](O)C(F)(F)F)ccc12` (single isomer, unassigned) [Compound 29] registered an EC50 of 0.02 nM.
With `N#Cc1nccc2cc(N3CCC[C@@H]3[C@H](O)C(F)(F)F)ccc12` (single isomer, unassigned) [Compound 35], the EC50 is 7.4 nM.
On the same count and under the same terms, for `N#Cc1nccc2cc(N3CCCC[C@@H]3[C@@H](O)C(F)(F)F)ccc12` (single isomer, unassigned) [Compound 28] the value was 61.5 nM.
Consider `Cc1ccc([C@H]2CNS(=O)(=O)N(c3ccc4c(C#N)nccc4c3)C2)cc1` (single isomer, unassigned) [Compound 18], for which the concentration giving a half-maximal response (EC50) under setting [1] is 20 nM.
Still for that read-out and setting: for `N#Cc1nccc2cc(N3[C@H](c4cccc(C(F)(F)F)c4)CNS3(=O)=O)ccc12` (single isomer, unassigned) [Compound 6] the value was 10 nM; for “6-[(4S)-4-ethyl-1,1-dioxido-1,2,6-thiadiazinan-2-yl]isoquinoline-1-carbonitrile [Compound 21]”, 8 nM.
The compound `N#Cc1nccc2cc(N3CC4(CC4)CNS3(=O)=O)ccc12` [Compound 14, 6-(6,6-dioxido-6-thia-5,7-diazaspiro[2.5]oct-5-yl)isoquinoline-1-carbonitrile] came in with an EC50 of 22 nM.
Still for that read-out and setting: the result for `N#Cc1nccc2cc(N3CCC[C@@H]3[C@@H](O)C(F)(F)F)ccc12` (single isomer, unassigned) [Compound 34] reads 0.1 nM; that for `N#Cc1nccc2cc(N3C(=O)CC[C@H]3[C@H](O)C(F)(F)F)ccc12` (single isomer, unassigned) [Compound 33], 231 nM.
As to `C[C@H]1CNS(=O)(=O)N(c2ccc3c(C#N)nccc3c2)C1` [Compound 11, 6-[(4S)-4-methyl-1,1-dioxido-1,2,6-thiadiazinan-2-yl]isoquinoline-1-carbonitrile], under setting [1], the EC50 came out at 687 nM.
For the compound `C[C@H]([C@@H](O)C(F)(F)F)N(C)c1ccc2c(C#N)nccc2c1` (single isomer, unassigned) [Compound 26], the 50% effective concentration (EC50) was found to be 0.1 nM.
In the case of `C[C@@H](Nc1ccc2c(C#N)nccc2c1)[C@H](O)C(F)(F)F` [Compound 23, 6-{[(2R,3S)-4,4,4-trifluoro-3-hydroxybutan-2-yl]amino}isoquinoline-1-carbonitrile], the concentration giving a half-maximal response (EC50) came out at 5.1 nM.
On the same count and under the same terms, the result for `CC1(C)CNS(=O)(=O)N(c2ccc3c(C#N)nccc3c2)C1` [Compound 13, 6-(4,4-dimethyl-1,1-dioxido-1,2,6-thiadiazinan-2-yl)isoquinoline-1-carbonitrile] reads 0.7 nM.
Regarding `CCCC1CNS(=O)(=O)N(c2ccc3c(C#N)nccc3c2)C1` (racemic) [Compound 22, 6-(1,1-dioxido-4-propyl-1,2,6-thiadiazinan-2-yl)isoquinoline-1-carbonitrile], the EC50 under setting [1] was found to be 569 nM.
